Data published in patent US11806343B2, “Inhibitors of DUX4 induction for regulation of muscle function” (Sonic Master Limited, priority 2017, dated 2023).
Where “and” joins values, the source holds several entries; their conditions need not be identical. Identical values can stand only once. Like-named read-outs stand apart in the source and are kept apart here.

Tests used:
[1] = test system: DUX4; assay: DUX4 expression downregulation by kinase family inhibitors (Table 1); assay type: cell-based; conditions: at the lowest significant concentration; listed as DCC2036
[2] = test system: Genea049 FSHD hESC-SkM; assay: FSHD hESC-SkM immunocytochemistry, Myosin Heavy Chain and nuclei (myogenic inhibition/toxicity); assay type: cell-based, human
Procedure: FIG. 6 provides an example of a screening and culturing workflow for hESC-SkM assays. At Day 0, hESC-derived myoblasts are thawed into a 96-well plate in myoblast medium (Genea BioCells). On Day 2, the medium is replaced with new myoblast medium containing 1.15 μM. Decitabine. […] On Day 7, the myotubes are analyzed. For example, the myotubes may be analyzed for MHC expression or DUX4 expression.
(§1) Genea049 FSHD-affected human Embryonic Stem Cells (hESCs) were differentiated using Genea's myogenic differentiation protocol (Caron et 2015) to the myoblast stage and cryopreserved. Frozen myoblasts were resuscitated and 4500 cells were plated into each well of a 96-well collagen I coated tissue culture plate in myoblast medium. After two days of cell growth medium was changed to 100 μL per well myoblast medium containing 1.15 μM Decitabine. […] Cells were allowed to differentiate to myotubes for four additional days then were fixed and analyzed for quantification of DUX4 expression, Myosin Heavy Chain expression, and nuclei number. Triplicate wells of each condition were averaged.
as §1, with “et al.,” for “et”, “number by high-content imaging.” for “number.”

[3] = Acute pharmacokinetic study, plasma; assay type: in vivo, CD-1 mice; conditions: mouse plasma; for AUClast: 0 to 24 hours
Procedure: Intraperitoneal injection, which provides the drug via absorption into the mesenteric blood supply and is thus subject to hepatic first-pass metabolism, was used to approximate oral dosings total of 96 mice were utilized: 3 naive CD-1 male mice and 3 naïve CD-1 female mice were dosed per route of administration per 2 doses plus 3 naive CD-1 male mice and 3 naïve CD-1 female mice were per route of administration per dose for tissue collection. Following administration, blood, brain, and muscle samples were collected as follows; Two blood samples were collected from each mouse at 2 distinct timepoints over 24 bout post-dose to include 0.25, 0.5, 1, 2, 4, 8, and 24 hours. Blood samples were centrifuged to obtain plasma samples. For each time point, duplicate aliquots of plasma were transferred into an appropriately labeled sample tube containing a volume of buffer. The diluted plasma samples were stored at −20° C. for the first 24 hours and then transferred to −80° C. 24 hours of processing. Terminal brain and muscle samples were collected at 1 hour and 24 hours after administration. Tissue samples were temporarily put on dry ice and then stored at −20° C. for the first 24 hours and then transferred to −80° C. 24 hours of collection Plasma, brain and muscle samples were analyzed for test substance quantification using a method based on protein precipitation followed by HPLC-MS/MS analysis within optimized bioanalytical method.

[4] = test system: 4qA and D4Z4 regions of chromosome 4; assay: Bisulfite sequencing of DNA methylation at 4qA and D4Z4 regions in FSHD-affected myotubes; assay type: cell-based, human; conditions: Genea049 FSHD-affected myotubes, 10 nM, 100 nM or 1 μM, myotube day 3
Procedure: Healthy (Genea015) or FSHD-affected (Genea049) MSC-derived myoblasts were cultured in Myoblast Media (Genea Biocells) while performing media changes every other day. When cells reached confluence, the medium was switched to Myottibe Medium (Genea Biocells) without any further media changes. On myotube day 3, cells were trypsinized and cell pellets were prepared for bisulfite sequencing analysis. Genomic DNA was isolated from cell pellets using QIAamp DNA Blood Mini Kit (Qiagen) and bisultite converted using the EpiTect Kit (Qiagen). The 4qA and D4Z4 regions were amplified and cloned into the pCR2.1 TOPO vector. The 4qA or D4Z4 containing plasmids were transformed into TOP10 chemically competent E. coli and selected for kanamycin resistance. Sequencing of kanamycin resistant colonies was completed by Sequegen and methylation analysis was performed using Bisulfite Sequencing DNA Methylation Analysis (BISMA) online software.
FSHD-affected. (Genea049) embryonic stem cell-derived myoblasts were cultured in Myoblast Media (Genea Biocells) while performing media changes every other day. When cells reached confluence, the medium was switched to Myotube Medium (Genea. Biocells) without any further media changes. […] On myotube day 3, myotubes were trypsinized and cell pellets were prepared for bisulfite sequencing analysis. Refer to the FIG. 1 legend for additional details.

[5] = test system: myotube marker genes; assay: Nanostring panel transcript analysis, myogenic genes; assay type: cell-based, human; conditions: 17MB026 primary myotubes, 30 nM-3 μM, 3 days
Procedure: (§2) 17MB026 primary FSHD-affected patient myoblasts (obtained from the University of Rochester FSHD Biorepository) were thawed and cultured as described in Rickard et al., 2015 in primary myoblast medium. Cells (4000 per well) were seeded to a collagen-I coated 96-well plate in 100 μL primary myoblast medium. Medium was changed every other day until cells reached 80% confluence followed by a switch to 100 μL per well primary myotube medium. […] Cells were lysed after 3 days of myotube formation using 10 μL of iScript Buffer (Biorad) per well. The resulting lysates were frozen at −30° C. After thaw, 5 μL of each lysate was combined with a custom-designed Nanostring transcript probe and capture codeset. Probes were hybridized to lysates and run cartridge was loaded and run per standard protocol. Normalization and background subtraction were performed using the nSolver 3.0 software using standard conditions DUX4 target gene and myotube marker gene expression values were normalized to a standard set of housekeeping genes. Duplicate wells of each condition were averaged.

[6] = test system: DUX4 target genes; assay: Nanostring panel transcript analysis, DUX4 target genes; assay type: cell-based, human; conditions: 17MB026 primary myotubes, six-point dose curve 30 nM-3 μM, 3 days
Procedure: as §2

[7] = IM, 10 mg/kg single dose, N = 6
[8] = IM, 50 mg/kg single dose, N = 6
[9] = IP, 10 mg/kg single dose, N = 6
[10] = IP, 50 mg/kg single dose, N = 6

**Q.** With CNC(=O)c1cc(Oc2ccc(NC(=O)Nc3cc(C(C)(C)C)nn3-c3ccc4ncccc4c3)c(F)c2)ccn1 [GBC0905, Rebastinib] as the compound, how does the “Quantitation % of DUX4 reduction @the lowest significant [C]” value [1] read?
**A.** The value was 66.39% and 51.75% and 79.76% and 82.94%.

**Q.** And the “Myosin Heavy Chain expression and nuclei count, dose curve” value ([2]; 10 nM-3 μM, four days)?
**A.** The value was “not seen in cells treated with GBC0905 (Rebastinib) at concentrations lower than 3 μM”.

**Q.** What about the “Myosin Heavy Chain expression and nuclei count” value ([2]; 100 nM, four days of culture) of the same compound?
**A.** Its value is “these effects are not seen”.

**Q.** And the tmax ([3]; both sexes, CD-1, im, intramuscular injection, 10 or 50 mg/kg, read-out: median time to maximum concentration (Tmax))?
**A.** Its tmax is 2 to 4 h.

**Q.** What about the AUClast [3, 7] of the same compound?
**A.** Its AUClast is 93.54 µg·h/mL.

**Q.** What about the “AUC∞” value [3, 7] of the same compound?
**A.** Its value is 98.469 µg·h/mL.

**Q.** What about the Cmax [3, 7] of the same compound?
**A.** Its Cmax is 8203 ng/mL.

**Q.** And the “MRT∞” value [3, 7]?
**A.** Its value is 7.83 h.

**Q.** What about the t1/2 [3, 7] of the same compound?
**A.** Its t1/2 is 5.59 h.

**Q.** What about the tmax [3, 7] of the same compound?
**A.** Its tmax is 2 h.

**Q.** What about the AUClast [3, 8] of the same compound?
**A.** Its AUClast is 222.518 µg·h/mL.

**Q.** What about the “AUC∞” value [3, 8] of the same compound?
**A.** The value was 256.486 µg·h/mL.

**Q.** What about the Cmax [3, 8] of the same compound?
**A.** Its Cmax is 15103 ng/mL.

**Q.** What about the “MRT∞” value [3, 8] of the same compound?
**A.** Its value is 11.8 h.

**Q.** What about the t1/2 [3, 8] of the same compound?
**A.** Its t1/2 is 8.10 h.

**Q.** What about the tmax [3, 8] of the same compound?
**A.** The tmax was 4 h.

**Q.** And the AUClast [3, 9]?
**A.** Its AUClast is 162.488 µg·h/mL.

**Q.** And the “AUC∞” value [3, 9]?
**A.** Its value is 162.568 µg·h/mL.

**Q.** What about the Cmax [3, 9] of the same compound?
**A.** Its Cmax is 23683 ng/mL.

**Q.** What about the “MRT∞” value [3, 9] of the same compound?
**A.** Its value is 4.46 h.

**Q.** What about the t1/2 [3, 9] of the same compound?
**A.** The t1/2 was 2.12 h.

**Q.** What about the tmax [3, 9] of the same compound?
**A.** Its tmax is 2 h.

**Q.** What about the AUClast [3, 10] of the same compound?
**A.** The AUClast was 651.387 µg·h/mL.

**Q.** And the “AUC∞” value [3, 10]?
**A.** The value was 651.534 µg·h/mL.

**Q.** And the Cmax [3, 10]?
**A.** Its Cmax is 81633 ng/mL.

**Q.** What about the “MRT∞” value [3, 10] of the same compound?
**A.** The value was 4.73 h.

**Q.** What about the t1/2 [3, 10] of the same compound?
**A.** The t1/2 was 1.90 h.

**Q.** What about the tmax [3, 10] of the same compound?
**A.** The tmax was 2 h.

**Q.** What about the “median time to maximum concentration (Tmax)” value ([3]; intraperitoneal injection, 10 or 50 mg/kg) of the same compound?
**A.** The value was 2 h.

**Q.** And the “DNA methylation levels at 4qA or D4Z4 regions” value [4]?
**A.** Its value is “No statistically significant effect”.

**Q.** What about the “expression of characteristic myotube genes” value [5] of the same compound?
**A.** The value was “does not decrease expression of queried characteristic myotube genes”.

**Q.** What about the “expression of DUX4-activated genes” value [6] of the same compound?
**A.** The value was “dose-dependent decrease of 11 DUX4-activated genes”.
